We go through one compound from US8445008B2, “Reduction of infection associated with medical device” (Medtronic, Inc., priority 2008, dated 2013).

As usually defined, the MIC is the smallest concentration in the dilution series that meets the test's criterion for growth inhibition. High values mean weaker potency, low ones greater potency.

In brackets after ≈: the same amount, converted by molar mass.

Data set [1] concerns S. aureus. Briefly: Minimum inhibitory concentration against the S. aureus strain used in the studies. To be noted: Staphylococcus aureus; strain of S. aureus used in the studies. The class given is cell-based.
A short description of data set [2]: Solubility in extraction/HPLC solvents. The class given is physicochemical.

Turning to `CO[C@H]1/C=C/O[C@@]2(C)Oc3c(C)c(O)c4c(O)c(c(/C=N/N5CCN(C)CC5)c(O)c4c3C2=O)NC(=O)/C(C)=C\C=C\[C@H](C)[C@H](O)[C@@H](C)[C@@H](O)[C@@H](C)[C@H](OC(C)=O)[C@@H]1C` [rifampin], in data set [1], the MIC came out at 0.06 µg/mL (≈ 0.0729 µM). Further, in data set [2], the “solubility in methanol and THF/ethanol 4:1” value is reported as “good solubility”.
